Key:
[1] = target: PD-1/PD-L1 (Homo sapiens, UniProt Q9NZQ7); experiment: PD-1/PD-L1 biochemical protein-protein interaction assay (ALPHA); assay type: binding; details: 0.3 nM His tagged PD-L1, 2.5 nM biotinylated Fc-PD-1, 60 minutes at 25° C., read-out: IC50 PD-L1-PD-1 Alpha IC50-mono PD-L1-fcP-D1
Procedure, shortened: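 Compound blockade of the PD-1/PD-L1 extracellular-domain interaction measured as reduced ALPHA signal after 60 min at 25 °C, pH 7.4 Hepes buffer with EDTA, Tween 20 and BSA. Final proteins: His-tagged PD-L1 0.3 nM, biotinylated Fc-PD-1 2.5 nM; four-parameter curve fit gives IC50.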

[2] = target: T1, PD-L1 (Homo sapiens, UniProt Q9NZQ7); experiment: PD-L1/PD-L1 dimerization biochemical protein-protein interaction assay (ALPHA); assay type: binding; details: compound-induced PD-L1 dimerization, head prints '1 nM' (0.5 nM His-tagged PD-L1 and 0.5 nM FLAG-tagged PD-L1), read-out: AC50 PDL1 Dimer Alpha 1 nM
T1 construct: determine if they can specifically dimerize the extracellular domains of PD-L1
T1 sequence (Q9NZQ7 19-238 limits assumed): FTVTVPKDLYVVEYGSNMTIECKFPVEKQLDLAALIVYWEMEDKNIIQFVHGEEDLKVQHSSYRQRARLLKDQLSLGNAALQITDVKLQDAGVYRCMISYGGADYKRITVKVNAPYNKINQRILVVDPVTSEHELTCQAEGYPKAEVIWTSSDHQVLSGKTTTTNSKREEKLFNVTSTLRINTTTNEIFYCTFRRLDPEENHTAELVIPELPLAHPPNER
T1 sequence (Q9NZQ7 19-238 limits assumed): as above
Procedure, shortened: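 After 2 h at 25 °C with compound, His- and FLAG-tagged PD-L1 ECDs (each 0.5 nM final; 25 mM Hepes pH 7.4, 150 mM NaCl) were detected by sequential anti-His acceptor and anti-FLAG donor bead incubations. Dose-response curves fitted to four-parameter equation for AC50.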

[3] = target: T2, PD-1/PD-L1 interaction (Homo sapiens, UniProt Q9NZQ7); experiment: PD-1/PD-L1 NFAT reporter co-culture assay; assay type: cell-based; details: Jurkat PD-1 NFAT-luciferase cells co-cultured with aAPC-PD-L1 CHO cells, 6 hrs at 37° C.; read-out: EC50 NFAT Luciferase
T2 construct: expressed in transfected cells; host or cells: CHO cells (aAPC-PD-L1) co-cultured with Jurkat cells overexpressing PD-1 and an NFAT-luciferase reporter
T2 sequence (Q9NZQ7 19-290): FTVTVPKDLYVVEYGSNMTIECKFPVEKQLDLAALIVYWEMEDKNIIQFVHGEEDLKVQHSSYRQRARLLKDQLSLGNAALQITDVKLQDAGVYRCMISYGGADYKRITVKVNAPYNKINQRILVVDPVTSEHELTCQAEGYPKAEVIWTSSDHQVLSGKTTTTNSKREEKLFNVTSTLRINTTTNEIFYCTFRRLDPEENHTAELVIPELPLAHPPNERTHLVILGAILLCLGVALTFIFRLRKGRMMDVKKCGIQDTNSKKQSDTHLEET
Procedure, shortened: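 Compounds are scored by restoration of NFAT-luciferase signal in PD-1-expressing Jurkat cells cultured 6 h at 37 °C on CHO cells presenting anti-CD3 and PD-L1; EC50 values derive from four-parameter curve fitting.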

[4] = target: T3, interaction between the recombinant extracellular domain (ECD) of PD-1 and native cell-bound PD-L1 (Homo sapiens, UniProt Q9NZQ7); experiment: CHO/PD-L1 cell capture assay; assay type: cell-based; details: CHO cells overexpressing PD-L1, pre-incubated 1 hr with compound, captured on biotinylated Fc-PD-1 coated plates, 75 min at room temperature
T3 construct: expressed in transfected cells
T3 sequence (Q9NZQ7 19-290): as above
Procedure, shortened: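 EC50 values came from four-parameter fits of counts of Draq5-stained CHO-PD-L1 cells retained on plate-bound biotinylated Fc-PD-1 ECD, enumerated by high-content imaging. Cells in PBS pH 7.4 with EDTA and 2% BSA had 1 hr compound pre-incubation, then 75 min capture at room temperature.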

Sequence of PD-1/PD-L1 (Q9NZQ7 19-238 limits assumed): as the sequence (Q9NZQ7 19-238 limits assumed) above

Structure (SMILES)	IC50 [1]	AC50 [2]	EC50 [3]	EC50 [4]
Cc1c(COc2cc(OCc3cncc(C#N)c3)c(CNC[C@H](O)C(=O)O)cc2Cl)cccc1-c1cccc(COc2cc(OCc3cncc(C#N)c3)c(CNC[C@H](O)C(=O)O)cc2Cl)c1C [Example 213, (2S,2′S)-3,3′-((((((2,2′-dimethyl-[1,1′-biphenyl]-3,3′-diyl)bis(methylene))bis(oxy))bis(5-chloro-2-((5-cyanopyridin-3-yl)methoxy)-4,1-phenylene))bis(methylene))bis(azanediyl))bis(2-hydroxypropanoic acid)]	0.0016 µM	0.255 µM	0.182 µM	0.165 µM
COc1cc(OCc2cccc(-c3cccc(COc4cc(OC)c(CNC[C@@H](O)CC(=O)O)cc4Cl)c3C)c2C)c(Cl)cc1CNC[C@@H](O)CC(=O)O [Example 214, (3S,3′S)-4,4′-((((((2,2′-dimethyl-[1,1′-biphenyl]-3,3′-diyl)bis(methylene))bis(oxy))bis(5-chloro-2-methoxy-4,1-phenylene))bis(methylene))bis(azanediyl))bis(3-hydroxybutanoic acid)]	0.0002 µM	0.188 µM	0.172 µM	0.0223 µM
COc1nc(O[C@H]2CCc3c(-c4cccc5c4CC[C@@H]5Oc4nc(OC)c(CNC[C@@H](O)CC(=O)O)cc4Cl)cccc32)c(Cl)cc1CNC[C@@H](O)CC(=O)O [Example 6, (3S,3′S)-4,4′-((((((1S,1′S)-2,2′,3,3′-tetrahydro-1H,1′H-[4,4′-biindene]-1,1′-diyl)bis(oxy))bis(5-chloro-2-methoxypyridine-6,3-diyl))bis(methylene))bis(azanediyl))bis(3-hydroxybutanoic acid)]	0.0001 µM	0.0909 µM	0.148 µM	0.0638 µM
COc1nc(OCc2cccc(-c3cccc(COc4nc(OC)c(CNCC(=O)O)cc4Cl)c3C)c2C)c(Cl)cc1CNCC(=O)O [Example 178, 2,2′-((((((2,2′-dimethyl-[1,1′-biphenyl]-3,3′-diyl)bis(methylene))bis(oxy))bis(5-chloro-2-methoxypyridine-6,3-diyl))bis(methylene))bis(azanediyl))diacetic acid]	0.0002 µM	≥ 10 µM	0.115 µM	0.0716 µM
COc1nc(OCc2cccc(-c3cccc(COc4nc(OC)c(CNC[C@@H](O)C(=O)O)cc4Cl)c3C)c2C)c(Cl)cc1CNC[C@@H](O)C(=O)O [Example 167, (2R,2′R)-3,3′-((((((2,2′-dimethyl-[1,1′-biphenyl]-3,3′-diyl)bis(methylene))bis(oxy))bis(5-chloro-2-methoxypyridine-6,3-diyl))bis(methylene))bis(azanediyl))bis(2-hydroxypropanoic acid)]	0.0022 µM	≥ 10 µM	0.109 µM	0.0623 µM
Cc1c(COc2nc(OCCc3cncnc3)c(CNC[C@@H](O)CC(=O)O)cc2Br)cccc1-c1cccc(COc2nc(OCCc3cncnc3)c(CNC[C@@H](O)CC(=O)O)cc2Br)c1C [Example 127, (3S,3′S)-4,4′-((((((2,2′-dimethyl-[1,1′-biphenyl]-3,3′-diyl)bis(methylene))bis(oxy))bis(5-bromo-2-(2-(pyrimidin-5-yl)ethoxy)pyridine-6,3-diyl))bis(methylene))bis(azanediyl))bis(3-hydroxybutanoic acid)]	0.0002 µM	0.166 µM	0.193 µM	0.0686 µM
Cc1c(COc2cc(OCc3cncc(C#N)c3)c(CNC[C@@H](O)CC(=O)O)cc2Cl)cccc1-c1cccc(-c2ccc(OCCNC[C@@H](O)CC(=O)O)cc2)c1C [Example 16, (S)-4-((4-((4″-(2-(((S)-3-carboxy-2-hydroxypropyl)amino)ethoxy)-2,2′-dimethyl-[1,1′:3′,1″-terphenyl]-3-yl)methoxy)-5-chloro-2-((5-cyanopyridin-3-yl)methoxy)benzyl)amino)-3-hydroxybutanoic acid]	0.0001 µM	0.1 µM	0.088 µM	0.006 µM
Cc1c(COc2cc(OCc3cncc(C#N)c3)c(CNC[C@@H](O)CC(=O)O)cc2Cl)cccc1-c1cccc(-c2ccc3c(cnn3CCNC[C@@H](O)CC(=O)O)c2)c1C [Example 209, (S)-4-((4-((3′-(1-(2-(((S)-3-carboxy-2-hydroxypropyl)amino)ethyl)-1H-indazol-5-yl)-2,2′-dimethyl-[1,1′-biphenyl]-3-yl)methoxy)-5-chloro-2-((5-cyanopyridin-3-yl)methoxy)benzyl)amino)-3-hydroxybutanoic acid]		0.0705 µM	0.073 µM	0.0131 µM
COc1nc(OCc2cccc(-c3cccc(COc4nc(OC)c(CNC[C@H](O)CC(=O)O)cc4Br)c3Cl)c2Cl)ccc1CNC[C@H](O)CC(=O)O [Example 192, (R)-4-(((6-((3′-(((3-Bromo-5-((((R)-3-carboxy-2-hydroxypropyl)amino)methyl)-6-methoxypyridin-2-yl)oxy)methyl)-2,2′-dichloro-[1,1′-biphenyl]-3-yl)methoxy)-2-methoxypyridin-3-yl)methyl)amino)-3-hydroxybutanoic acid]		0.267 µM	0.197 µM	0.0312 µM
Cc1c(COc2nc(OC[C@H]3CCC(=O)N3)c(CNCC(=O)O)cc2Br)cccc1-c1cccc(COc2nc(OC[C@H]3CCC(=O)N3)c(CNCC(=O)O)cc2Br)c1C [Example 129, 2,2′-((((((2,2′-dimethyl-[1,1′-biphenyl]-3,3′-diyl)bis(methylene))bis(oxy))bis(5-bromo-2-(((R)-5-oxopyrrolidin-2-yl)methoxy)pyridine-6,3-diyl))bis(methylene))bis(azanediyl))diacetic acid]		0.167 µM	0.198 µM	0.221 µM
COc1nc(OCc2cccc(-c3cccc(-c4ccc(OCCNC[C@H](O)CC(=O)O)cc4)c3C)c2C)c(Cl)cc1CNC[C@H](O)CC(=O)O [Example 110, (R)-4-(((6-((4″-(2-(((R)-3-carboxy-2-hydroxypropyl)amino)ethoxy)-2,2′-dimethyl-[1,1′:3′,1″-terphenyl]-3-yl)methoxy)-5-chloro-2-methoxypyridin-3-yl)methyl)amino)-3-hydroxybutanoic acid]		0.194 µM	0.354 µM	0.0065 µM
Cc1c(COc2cc(OCc3cncc(C#N)c3)c(CNC[C@@H](O)CC(=O)O)cc2Cl)cccc1-c1cccc(-c2ccc(OCCNC[C@@H](O)CC(=O)O)c([N+](=O)[O-])c2)c1C [Example 92, (S)-4-((4-((4″-(2-(((S)-3-carboxy-2-hydroxypropyl)amino)ethoxy)-2,2′-dimethyl-3″-nitro-[1,1′:3′,1″-terphenyl]-3-yl)methoxy)-5-chloro-2-((5-cyanopyridin-3-yl)methoxy)benzyl)amino)-3-hydroxybutanoic acid]		0.17 µM	0.063 µM	0.0259 µM
Cc1c(COc2cc(OCc3cncc(C#N)c3)c(CNC[C@@H](O)CC(=O)O)cc2Cl)cccc1-c1cccc(OCc2ccc(CNC[C@@H](O)CC(=O)O)cc2)c1C [Example 279, (S)-4-((4-(((3′-((4-((((S)-3-carboxy-2-hydroxypropyl)amino)methyl)-2-chloro-5-((5-cyanopyridin-3-yl)methoxy)phenoxy)methyl)-2,2′-dimethyl-[1,1′-biphenyl]-3-yl)oxy)methyl)benzyl)amino)-3-hydroxybutanoic acid]		0.109 µM	0.26 µM	0.0277 µM
Cc1c(COc2nc(OCCC(=O)N(C)C)c(CNC[C@@H](O)CC(=O)O)cc2Br)cccc1-c1cccc(COc2nc(OCCC(=O)N(C)C)c(CNC[C@@H](O)CC(=O)O)cc2Br)c1C [Example 135, (3S,3′S)-4,4′-((((((2,2′-dimethyl-[1,1′-biphenyl]-3,3′-diyl)bis(methylene))bis(oxy))bis(5-bromo-2-(3-(dimethylamino)-3-oxopropoxy)pyridine-6,3-diyl))bis(methylene))bis(azanediyl))bis(3-hydroxybutanoic acid)]		0.25 µM	0.812 µM	0.221 µM
COc1nc(OCc2cccc(-c3cccc(COc4nc(OC)c(CN5CCC[C@H]5C(=O)O)cc4Cl)c3C)c2C)c(Cl)cc1CN1CCC[C@H]1C(=O)O [Example 232, (2′S)-(((((2,2′-dimethyl-[1,1′-biphenyl]-3,3′-diyl)bis(methylene))bis(oxy))bis(5-chloro-2-methoxypyridine-6,3-diyl))bis(methylene))di-L-proline]		0.314 µM	0.331 µM	0.142 µM

Source: patent publication US12590062B2, “PD-1/PD-L1 inhibitors” (Gilead Sciences, Inc., priority 2017, dated 2026)
